Patent US20180008542A1, “PHARMACEUTICAL COMPOSITION” (priority 2003, published 2018)

How the values were obtained:
[1] = Zeta potential (Malvern Zetasizer, suspension in acetonitrile); type: physicochemical; settings: for Zeta potential (sign): dilute suspension in acetonitrile; for Zeta potential (mV): microcrystals in non-aqueous medium, precipitation pH 5.59-7.02 as given per sample
Source text: The core microcrystal and protein coating that are characteristic of protein coated coated microcrystals arise from a single continuous self-assembly process. In order to assess whether electrostatic binding of the bioactive molecule to pre-formed microcrystals might be important in the mechanism of this process it was of interest to measure the surface potential of the microcrystals in a non-aqueous medium. The liquid layer surrounding a charged particle exists as two parts; an inner region (Stern layer) where the ions are strongly bound and an outer (diffuse) region where they are less firmly associated. Within the diffuse layer there is a notional boundary inside which the ions and particles form a stable entity. When a particle moves (e.g. due to gravity), ions within the boundary move too. […] The potential at this boundary (surface of hydrodynamic shear) is the zeta potential. The sign and magnitude of the zeta potential depends on the surface charge of the particle with for example a negative zeta potential indicating a particle with an overall negative charge. A Malvern Zetasizer that employs laser Doppler velocimetry was used to measure the sign and approximate magnitude of the Zeta potential of microcrystals produced by precipitation of various core materials at fixed pH. The measurements were made on pre-prepared microcrystals or protein coated microcrystals suspended as dilute suspension in acetonitrile. A polystyrene latex was used to calibrate the machine. […] If electrostatic binding is important to the mechanism of formation it would be expected that only biomolecules with an overall positive charge would be expected to form a coating on these negatively charged materials. The charge on a protein is a function of pH. It will be negative at pH values above the pI and positive at a pH below the pI.

[2] = Laser diffraction particle size analysis (Mastersizer 2000); type: physicochemical; settings: continuous flow precipitator, into isopropanol; coated samples 10% protein loading
Procedure: Laser diffraction particle size analysis was carried out on bioactive coated particles using a Mastersizer 2000. Briefly, enough PCMC was added to the sample holder of the Mastersizer 2000 containing 60 ml of 2-propanol to ensure a laser obscuration of between 10 and 20%. Measurements were then taken using a previously set up Standard Operating Procedure. d(0.1)(μm)=10% of the particles are below this particle size d(0.5)(μm)=50% of the particles are above and below this particle size d(0.9)(μm)=90% of the particles are below this particle size. Span=d(0.9)−d(0.1)/d(0.5)
Span gives a good indication of population homogeneity.

[3] = above 80% RH
Procedure: The uptake of water by bioactive molecule coated particles produced by the present co-precipitation process and of the core material precipitated alone under a controlled humidified environment was carried out by Dynamic Vapor Sorption (DVS) using Dynamic Vapor Sorption 1000 (Surface Measurement Systems).
The Experimental set-up was as follows.
The DVS used a 2 full-cycle experimental Special Automatic Operation (SAO) protocol that included an initial drying stage at 0% Relative Humidity (RH). […] This was proceeded by an identical desorption cycle down to 0% RH. This cycle was repeated. The following criteria was used to control the DVS stage change: either the rate of change of the increase in mass i.e. dm/dt dropped to 0.002, or the maximum stage time was 2000 minutes.
Prior to introduction of the sample, the balance was tared and the instrument was allowed to equilibrate until a stable baseline was observed. The particles were then loaded and the initial weight recorded, followed by switching on the SAO. The experiment ran until the completion of the SAO.

resistance arteries [4] = test: Ex-vivo insulin bioactivity, wire myograph; type: cell-based, Wistar rats; settings: pre-constriction with thromboxane mimetic [U44169]
Procedure: A pressure myograph which allowed luminal application of drug provided initial measures of sensitivity. In the pressure system, arteries mounted on opposing glass cannula (outer dimension 80 μm) were gradually pressurized from <5 mmHg to 40 mmHg over 15 mins and held for 15 mins more before starting the assay. Responses were measured using proprietary video analysis software (MyoView). […] The arteries were then exposed to increasing concentrations of insulin either directly into the bath (wire) or by gradual infusion directly into the lumen via a fetal microcannulae inserted to the tip of the glass mounting cannula, at a constant pressure (pressure). Following pre-constriction with thromboxane mimetic [U44169] the insulin-mediated vasorelaxation profile is typical for insulin and exerts its effect mainly via the activation of nitric oxide synthase and the subsequent release of endothelial nitric oxide.

[5] = HPLC analysis of insulin after reconstitution; settings: retained in the same aqueous solution used for co-precipitation
resistance arteries [6] = test: Ex-vivo insulin bioactivity, pressure myograph; type: cell-based, Wistar rats; settings: mean of 3 (SD)
Procedure: Insulin bioactivity assays were carried out on resistance arteries ([…]) isolated from 12 week old male Wistar rats studied in heated (37° C.) and gassed (95% O2/5% CO2) physiological salt solution (PSS) to achieve a pH of 7.4. A pressure myograph which allowed luminal application of drug provided initial measures of sensitivity. In the pressure system, arteries mounted on opposing glass cannula (outer dimension 80 μm) were gradually pressurized from <5 mmHg to 40 mmHg over 15 mins and held for 15 mins more before starting the assay. Responses were measured using proprietary video analysis software (MyoView). The pressure myograph is able to detect the vasodilatory effect of insulin at very low concentrations (1×10^−10 M).

| Compound | Zeta potential (sign) [1] | Zeta potential (mV) [1] [mV] | Span [2] | d(0.5)/microns [2] [microns] | water uptake [3] | insulin mediated vasorelaxation (resistance arteries [4]) | time to significant changes [5] | insulin mediated relaxation to noradrenaline pre-constriction (100=100% constriction) (resistance arteries [6]; Log M −9) | insulin mediated relaxation to noradrenaline pre-constriction (100=100% constriction) (resistance arteries [6]; Log M −10) | insulin mediated relaxation to noradrenaline pre-constriction (100=100% constriction) (resistance arteries [6]; Log M −11) |
| --- | --- | --- | --- | --- | --- | --- | --- | --- | --- | --- |
| NC(=O)CC[C@H](N)C(=O)O [L-glutamine] | negative | −54.8 | 1.88 | 36.373 | – | – | – | – | – | – |
| NCC(=O)O [Glycine, glycine] | negative | −49.7 | 1.72 | 58.370 | start to take up appreciable amounts of water | – | – | – | – | – |
| CC(C)C(N)C(=O)O (racemic) [D,L-valine] | negative | −19.6 | 1.32 | 21.810 | – | no bioactivity | – | – | – | – |
| Commercial Insulin: USP bovine pancreas insulin control | – | – | – | – | – | – | less than 30 minutes | 65 (23) % | 84 (7) % | 100 (0) % |
